Measured values: patent US6506799B1, “Methods of treating cardiovascular diseases, dyslipidemia, dyslipoproteinemia, and hypertension with ether compounds” (Esperion Therapeutics, Inc., priority 1999, dated 2003)

Legend:
[1] = system: primary rat hepatocytes; assay: Synthesis of non-saponified and saponified lipids (14C-acetate incorporation) in hepatocytes; assay type: cell-based; conditions: 100 μM; 14C-acetate 2 hr; vs no compound control
Experimental: A male Sprague-Dawley rat was anesthetized by administration of sodium pentobarbitol by intraparitoneal injection at 50 mg/kg. In situ perfusion of the liver was performed as follows. […] To digest the liver, DSC solution (6.7 mM KCl, 143 mM NaCl, 9.2 mM Na HEPES, 5 mM CaCl2-2H2O, 1.7 mM Fructose, 0.029 mM Phenol red, 0.2% BSA, 100 U/ml collagenase Type I, 93 U/ml Hyaluronidase, 160 BAEE/ml trypsin inhibitor, pH 7.5) was perfused through the liver at a flow rate of 30 ml/min for 6 minutes at a temperature of 37° C. After digestion, cells were dispersed in a solution of DMEM-(DMEM containing 2 mM GlutMax-1, 0.2% BSA, 5% FBS, 12 nM insulin, 1.2 μM hydrocortisone) to stop the digestion process. The crude cell suspension was filtered through three layers of stainless steel mesh with pore sizes of 250, 106, and 75 μm respectively. Filtered cells were centrifuged at 50×g for two minutes and the supernatant discarded. The resulting cell pellet was resuspended in DMEM and centrifuged again. This final cell pellet was resuspended in DMEM+HS solution (DMEM containing 2 mM GlutMax-1, 20 nM delta-aminolevulinic acid, 17.4 mM MEM non-essential amino acids, 20% FBS, 12 nM insulin, 1.2 µM hydrocortisone) and plated to form monolayer cultures at a density of 100×10^3 cells/cm^2 on collagen coated culture dishes. Four hours after initial plating, media was changed to DMEM+(DMEM containing 2 mM GlutMax-1, 20 nM delta-aminolevulinic acid, 17.4 mM MEM non-essential amino acids, 10% FBS, 12 nM insulin, 1.2 μM hydrocortisone) and remained on cells overnight.
To test the effect of illustrative compounds of the invention on synthesis rates of non-saponified and saponified lipids, the monolayer cultures were exposed to 1 μM of lovastatin or 100 μM Compound A, B, D, E or F in DMEM+ containing 1 μCi/ml ^14C-acetate. Control cells were exposed to the same media lacking lovastatin or the test compounds. All cells were exposed to 0.1% DMSO. Metabolic labeling with ^14C-acetate continued for 2 hr at 37° C. After labeling, cells were washed twice with 1 ml of PBS followed by lysing in 1 ml of deionized water. Cells were scraped from the dishes, transferred to glass tubes and sonicated. 2.5 ml of 2:1 chloroform/methanol mixture was added followed by 1.5 ml of Phosphate Buffered Saline (PBS). To correct for extraction efficiency in the upcoming extractions, 3000 dpm of ^3H-cholesterol was added to each tube. Tubes were shaken for 30 min. to extract lipids into the organic phase followed by centrifugation for 10 minutes at 1000×g to separate the organic and aqueous phases. The lower organic phase containing total lipids was removed and placed in a new tube. The organic solution was evaporated under N2. […]

[2] = system: chow fed male Sprague-Dawley rats; assay: Serum lipids, apolipoproteins and weight gain in chow fed male Sprague-Dawley rats after seven days of treatment; assay type: in vivo, rat; conditions: 100 mg/kg/day oral gavage, 7 days; normalized against vehicle control
Experimental: Illustrative compounds of the invention were administered daily at a dose of 100 mg/kg to chow fed male Sprague-Dawley rats for seven days in the morning by oral gavage in 1.5% carboxymethylcellulose/0.2% Tween-20 (dosing vehicle). Animals were weighed daily. Animals were allowed free access to rodent chow and water throughout the study. After the seventh dose, animals were sacrificed in the evening and blood serum was assayed for lipoprotein cholesterol profiles, serum triglycerides, total cholesterol VLDL, LDL, and HDL cholesterol, and the ratio of HDL cholesterol to that of VLDL plus LDL cholesterol, apolipoproteins A-I, C-II, C-III, and E by immunoelectrophoresis, and percent weight gain.
The five compounds were tested in two separate experiments. In each experiment, the experimental data were normalized against a control group of rats which received the dosing vehicle alone.

[3] = system: chow fed obese female Zucker rats; assay: Experiments B, C, D, E: serum lipids, glucose, insulin, body and liver weight in obese female Zucker rats, 14 days; assay type: in vivo, rat; conditions: for Body Weight Gain (% of Pretreatment) / HDL-Cholesterol (% of Pretreatment) / Non HDL-Cholesterol (% of Pretreatment) / Triglycerides (% of Pretreatment): 14 days
Experimental: In a number of different experiments, illustrative compounds of the invention and troglitazone were administered daily at various doses to 10-week old chow fed obese female Zucker rats for 14 days in the morning by oral gavage in 1.5% carboxymethylcellulose/0.2% Tween-20 (dosing vehicle). Animals were weighed daily. Animals were allowed free access to rodent chow and water throughout the study. Blood glucose was determined after a 6-hour fast in the afternoon without anesthesia from a tail vein. Serum was also prepared from a blood sample subsequently obtained from the orbital venous plexus (with O2/CO2 anesthesia) prior to and after one week treatment and used lipid and insulin determinations. At two weeks, blood glucose was again determined after a 6-hour fast without anesthesia from a tail vein. Soon thereafter, animals were sacrificed by CO2 inhalation in the evening and cardiac blood serum was collected and assessed for various lipids and insulin. Body weight was determined daily prior to dosing and at the time of euthanasia.

[4] = system: female obese Zucker rats; assay: Experiment A: serum lipids, glucose, non-esterified fatty acids and weight gain in obese female Zucker rats after seven days; assay type: in vivo, rat; conditions: 120 mg/kg
Experimental: Dosing vehicle, Compound A (86 mg/kg of body weight) or troglitazone (120 mg/kg of body weight) was administered to eight week old female obese Zucker rats daily for seven days in the morning by oral gavage in 1.5% carboxymethylcellulose/0.2% Tween-20. Troglitazone was obtained commercially. Finely crushed tablets were suspended in vehicle for dosing. Orbital blood samples were obtained following a six-hour fast prior to the initial dose and also following the seventh dose.
Blood serum was assayed for total cholesterol and triglycerides (FIG. 5), lipoprotein cholesterol profiles (FIG. 6), VLDL plus LDL cholesterol combined (also referred to as apo B containing lipoprotein cholesterol or non-HDL cholesterol), HDL cholesterol, and the ratio of HDL cholesterol to that of VLDL plus LDL cholesterol (FIG. 7), serum glucose, and non-esterified fatty acids (FIG. 8), and percent weight gain (FIG. 9). […] In particular, Compound A caused a marked elevation in HDL cholesterol after one week of treatment. Using the serum total cholesterol values (FIG. 5A) and the lipoprotein cholesterol distribution (FIG. 6), the amount of cholesterol associated with non-HDL (i.e., VLDL plus LDL) and HDL were determined (FIG. 7). […] In contrast, troglitazone reduced non-HDL and HDL cholesterol by 67% and 4%, respectively.

## CC(C)(O)CCCCOCCCCC(C)(C)O [Compound F, 6-(5-hydroxy-5-methyl-hexyloxy)-2-methyl-hexan-2-ol]
[1]
  rates of saponified fatty acid synthesis: reduced the rates of saponified fatty acid synthesis

## CC(C)(CCCCOCCCCC(C)(C)OP(=O)(OCc1ccccc1)OCc1ccccc1)OP(=O)(OCc1ccccc1)OCc1ccccc1 [Compound C, phosphoric acid dibenzyl ester 5-(5-(bis-benzyloxy-phosphoryloxy)-5-methyl-hexyloxy)-1,1-dimethyl-pentyl ester]
[2]
  HDL-Cholesterol (% change): +11.6 % change
  LDL-Cholesterol (% change): −4.0 % change
  Triglyceride (% change): +32.6 % change

## CC(C)(CCCOCCCC(C)(C)OP(=O)(O)O)OP(=O)([O-])[O-].[Na+].[Na+] [Compound D, phosphoric acid mono-(1,1-dimethyl-4-(4-methyl-4-phosphonooxy-pentyloxy)-butyl)ester sodium salt]
[2]
  HDL-Cholesterol (% change): +13.3 % change
  LDL-Cholesterol (% change): −17.0 % change
  Triglyceride (% change): +28.0 % change

## CC(C)(CCCCOCCCCC(C)(C)OP(=O)(O)O)OP(=O)([O-])[O-].[Na+].[Na+] [Compound B, phosphoric acid mono-(1,1-dimethyl-5-(5-methyl-5-phosphonooxy-hexyloxy)-pentyl)ester sodium salt]
[2]
  HDL-Cholesterol (% change): +40.7 % change
  LDL-Cholesterol (% change): +23.2 % change
  Triglyceride (% change): −31.1 % change
[3]; Experiment B, 100 mg/kg/day
  Body Weight Gain (% of Pretreatment): +12.0 % of Pretreatment
  HDL-Cholesterol (% of Pretreatment): −23.3 % of Pretreatment
  Non HDL-Cholesterol (% of Pretreatment): +257.1 % of Pretreatment
  Triglycerides (% of Pretreatment): +24.6 % of Pretreatment

## Cc1c(C)c2c(c(C)c1O)CCC(C)(COc1ccc(CC3SC(=O)NC3=O)cc1)O2 (stereo not drawn) [troglitazone, reference compound]
[4]; one week
  reduction of HDL cholesterol: 4%
  reduction of non-HDL cholesterol: 67%
  reduction of non-esterified fatty acids: 65%
[4]; seven days, vehicle 6.6%
  increase in weight gain: +11.6%
[3]; Experiment B, 120 mg/kg/day
  Body Weight Gain (% of Pretreatment): +21.7 % of Pretreatment
  HDL-Cholesterol (% of Pretreatment): +44.2 % of Pretreatment
  Non HDL-Cholesterol (% of Pretreatment): −44.0 % of Pretreatment
  Triglycerides (% of Pretreatment): −76.6 % of Pretreatment
[3]; Experiment C, 12 mg/kg/day
  Body Weight Gain (% of Pretreatment): +20.2 % of Pretreatment
  HDL-Cholesterol (% of Pretreatment): +1.9 % of Pretreatment
  Non HDL-Cholesterol (% of Pretreatment): −10.6 % of Pretreatment
  Triglycerides (% of Pretreatment): +10.7 % of Pretreatment
[3]; Experiment C, 40 mg/kg/day
  Body Weight Gain (% of Pretreatment): +21.2 % of Pretreatment
  HDL-Cholesterol (% of Pretreatment): +36.1 % of Pretreatment
  Non HDL-Cholesterol (% of Pretreatment): −50.5 % of Pretreatment
  Triglycerides (% of Pretreatment): −59.6 % of Pretreatment
[3]; Experiment C, 120 mg/kg dose
  HDL increase: 122%
[3]; Experiment C, 120 mg/kg/day
  Body Weight Gain (% of Pretreatment): +25.5 % of Pretreatment
  HDL-Cholesterol (% of Pretreatment): +122.4 % of Pretreatment
  Non HDL-Cholesterol (% of Pretreatment): −67.5 % of Pretreatment
  Triglycerides (% of Pretreatment): −79.2 % of Pretreatment
[3]; Experiment C, all doses, after two weeks, FIG. 16
  percent liver to body weight: reduced at all doses
[3]; Experiment D, 120 mg/kg/day
  Body Weight Gain (% of Pretreatment): +13.8 % of Pretreatment
  HDL-Cholesterol (% of Pretreatment): +41.3 % of Pretreatment
  Non HDL-Cholesterol (% of Pretreatment): −51.0 % of Pretreatment
  Triglycerides (% of Pretreatment): −65.9 % of Pretreatment
[3]; Experiment E, 120 mg/kg/day
  Body Weight Gain (% of Pretreatment): +14.4 % of Pretreatment
  HDL-Cholesterol (% of Pretreatment): +47.9 % of Pretreatment
  Non HDL-Cholesterol (% of Pretreatment): −67.4 % of Pretreatment
  Triglycerides (% of Pretreatment): −69.4 % of Pretreatment

## CC(C)(CCCOCCCC(C)(C)OP(=O)(OCc1ccccc1)OCc1ccccc1)OP(=O)(OCc1ccccc1)OCc1ccccc1 [Compound E, phosphoric acid dibenzyl ester 4-(4-(bis-benzyloxy-phosphoryloxy)-4-methyl-pentyloxy)-1,1-dimethyl-butyl ester]
[2]
  HDL-Cholesterol (% change): +49.1 % change
  LDL-Cholesterol (% change): −41.0 % change
  Triglyceride (% change): −30.5 % change
[1]
  rates of saponified fatty acid synthesis: reduced the rates of saponified fatty acid synthesis
